Laboratory results as given in patent US10736968B2, “Cellular signalling inhibitors, their formulations and methods thereof” (INVICTUS ONCOLOGY PVT. LTD., priority 2016, dated 2020).

Tested on: AKT-mTOR-p70S6K pathway
Assay: Downstream signaling in macrophages after drug washout and MCSF exposure (Western blot)
Type: cell-based
Settings: 4 hours drug, washout 7 h or 48 h, MCSF 2 h

FC(F)(F)c1ccc(CNc2ccc(Cc3c[nH]c4ncc(Cl)cc34)cn2)cn1 [PLX3397]
AKT-mTOR-p70S6K downstream signaling: not by BLZ945 and PLX3397
